Measurements from ChEMBL document CHEMBL3804761, “Synthesis of a stable and orally bioavailable englerin analogue” (Bioorg Med Chem Lett, 2016).
Calls of active or inactive are those of the source. The calls are words filed in the database; no cut-off is given here.

Target: Protein kinase C (PKC) (Homo sapiens) (UniProt O94806+P41743+P17252+P05129+Q05655+P05771+Q05513+Q02156+P24723+Q15139+Q04759)
Test: Activation of PKC in human 786-0 cells at 1 uM
Assay type: cell-based

Activity | Compound
Active | CC/C(C)=C/C(=O)O[C@@H]1[C@H](C)C[C@H]2O[C@]1(O)[C@@H](O)[C@@]1(C)CC[C@H](O1)C(C)(C)/C=C/[C@H](C)C2=O
Active | CC(C)[C@@]12C[C@@H](OC(=O)CO)[C@@](C)(O1)[C@@H]1CC[C@@H](C)[C@H]1[C@@H]2OC(=O)/C(Cl)=C/c1ccccc1
